The record followed here is PMC6540015, “New Quinolone-Based Thiosemicarbazones Showing Activity Against Plasmodium falciparum and Mycobacterium tuberculosis” (Molecules, 2019).

Molecules are shown by their SMILES. Values after ≈ are worked out from the molar mass of the structure shown. Read-outs that look alike come from different tables or passages of the source.

For series [1], the system named is M. tuberculosis H37Rv strain. Briefly: microbe, parasite or virus in culture. Type of series: cell-based. The note with it: Mycobacterium tuberculosis, concentration inhibiting 90% of bacterial population; for MIC: read-out: MIC90 H37Rv.
The subject of series [2] is 3D7 strain of Plasmodium falciparum. In words: In vitro anti-plasmodial pLDH assay. It counts as cell-based.
The mark [3] stands for this setting: Plasmodium falciparum, chloroquine sensitive strain 3D7 of P. falciparum, 48 h, na = not active, read-out: IC50 Pf 3D7.
Where [4] appears, read: Plasmodium falciparum, 3D7, 48 h, read-out: IC50 Pf 3D7, chloroquine sensitive strain 3D7 of P. falciparum, na = not active.

`COCCNC(=O)c1cn(Cc2ccc(Cl)cc2Cl)c2ccc(/C(C)=N/NC(N)=S)cc2c1=O` [Compound 19, (E)-6-(1-(2-carbamothioylhydrazono)ethyl)-1-(2,4-dichlorobenzyl)-N-(2-methoxyethyl)-4-oxo-1,4-dihydroquinolone-3-carboxamide] came in with a melting point of 209 to 211 °C. The compound further displayed an MIC90 in series [1] of 10.2 µM (≈ 5.31 µg/mL).
Consider `CCOC(=O)c1cn(Cc2ccc(Cl)cc2Cl)c2ccc(/C(C)=N/NC(N)=S)cc2c1=O` [Compound 21, Ethyl-(E)-6-(1-(2-carbamothioylhydrazono)ethyl)-1-(2,4-dichlorobenzyl)-4-oxo-1,4-dihydroquinolone-3-carboxylate], for which the melting point fell in the range of 211 to 213 °C. In series [1], the MIC90 amounted to 31.6 µM (≈ 15.5 µg/mL) and the MIC came out at 31.6 µM (≈ 15.5 µg/mL).
`CCOC(=O)c1c[nH]c2ccc(C(C)=O)cc2c1=O` [Compound 8]: in series [2] (setting [3]), the IC50 was determined as 4 µM.
For `COCCNC(=O)c1cn(Cc2ccc(Br)cc2)c2ccc(/C(C)=N/NC(N)=S)cc2c1=O` [Compound 18, (E)-1-(4-bromobenzyl)-6-(1-(2-carbamothioylhydrazono)ethyl)-N-(2-methoxyethyl)-4-oxo-1,4-dihydroquinolone-3-carboxamide], the melting point is 204 to 206 °C. The compound further yielded an MIC90 in series [1] of 15 µM (≈ 7.96 µg/mL). Also, the IC50 in series [2] (setting [4]) was 9.9 µM.
Compound `C/C(=N\NC(N)=S)c1ccc2c(c1)c(=O)c(C(=O)NCCNCCO)cn2Cc1ccccc1` [Compound 13, (E)-1-benzyl-6-(1-(2-carbamothioylhydrazono)ethyl)-N-(2-((2-hydroxyethyl)amino)ethyl)-4-oxo-1,4-dihydroquinolone-3-carboxamide] registered a melting point of 197 to 199 °C. Moreover, in series [1], the MIC90 was 2.7 µM (≈ 1.3 µg/mL) and the MIC was 2.7 µM (≈ 1.3 µg/mL). For the same compound, the IC50 in series [2] (setting [4]) amounted to 4.1 µM.
Compound `C/C(=N\NC(N)=S)c1ccc2c(c1)c(=O)c(C(=O)NCCNCCO)cn2Cc1ccc(Cl)cc1Cl` [Compound 16, (E)-6-(1-(2-carbamothioylhydrazono)ethyl)-1-(2,4-dichlorobenzyl)-N-(2-((2-hydroxyethyl)amino)ethyl)-4-oxo-1,4-dihydroquinolone-3-carboxamide] returned a melting point of 205 to 207 °C. In addition, in series [1], the MIC90 was determined as 4.8 µM (≈ 2.64 µg/mL) and the MIC stood at 4.8 µM (≈ 2.64 µg/mL). Further, the IC50 in series [2] (setting [4]) came out at 3.1 µM.
Regarding `CO[C@H]1/C=C/O[C@@]2(C)Oc3c(C)c(O)c4c(O)c(c(/C=N/N5CCN(C)CC5)c(O)c4c3C2=O)NC(=O)/C(C)=C\C=C\[C@H](C)[C@H](O)[C@@H](C)[C@@H](O)[C@@H](C)[C@H](OC(C)=O)[C@@H]1C` [RF, Rifampicin, reference compound], the MIC90 in series [1] worked out at 0.062 µM (≈ 0.051 µg/mL).
The compound `CCn1cc(C(=O)NCCCn2ccnc2)c(=O)c2cc(/C(C)=N/NC(N)=S)ccc21` [Compound 11, (E)-N-(3-(1H-imidazol-1-yl)propyl)-6-(1-(2-carbamothioylhydrazono)ethyl)-1-ethyl-4-oxo-1,4-dihydroquinolone-3-carboxamide] returned a melting point of 187 to 189 °C. In series [1], the MIC90 was greater than 125 µM and the MIC was greater than 125 µM. In addition, in series [2] (setting [3]), the IC50 was 3.7 µM.
Compound `CCn1cc(C(=O)NCCNCCO)c(=O)c2cc(/C(C)=N/NC(N)=S)ccc21` [Compound 12, (E)-6-(1-(2-carbamothioylhydrazono)ethyl)-1-ethyl-N-(2-((2-hydroxyethyl)amino)ethyl)-4-oxo-1,4-dihydroquinolone-3-carboxamide] displayed a melting point of 183 to 185 °C. Also, in series [1], the MIC90 came to 73.4 µM (≈ 30.7 µg/mL) and the MIC stood at 73.4 µM (≈ 30.7 µg/mL). The “IC50 Pf 3D7” value in series [2] (chloroquine sensitive strain 3D7 of P. falciparum, 48 h, na = not active) is listed as “not active”.
For `C/C(=N\NC(N)=S)c1ccc2c(c1)c(=O)c(C(=O)NCCNCCO)cn2Cc1ccc(Br)cc1` [Compound 14, (E)-1-(4-bromobenzyl)-6-(1-(2-carbamothioylhydrazono)ethyl)-N-(2-((2-hydroxyethyl)amino)ethyl)-4-oxo-1,4-dihydroquinolone-3-carboxamide], the melting point fell in the range of 200 to 202 °C. Also, in series [1], the MIC90 was determined as 10.3 µM (≈ 5.76 µg/mL) and the MIC worked out at 10.3 µM (≈ 5.76 µg/mL). The IC50 in series [2] (setting [4]) was determined as 4 µM. The IC50 in series [2] (read-out: IC50 Pf 3D7, chloroquine sensitive strain 3D7 of P. falciparum, 48 h, na = not active) came out at 4.7 µM.
Consider `CCN(CC)CCCC(C)Nc1ccnc2cc(Cl)ccc12` (stereo not drawn) [CQ, Chloroquine, reference compound], for which, in series [2] (setting [3]), the IC50 is 0.012 µM.
The compound `C/C(=N\NC(N)=S)c1ccc2c(c1)c(=O)c(C(=O)NCCNCCO)cn2Cc1ccc(C(F)(F)F)cc1` [Compound 15, (E)-6-(1-(2-carbamothioylhydrazono)ethyl)-N-(2-((2-hydroxyethyl)amino)ethyl)-4-oxo-1-(4-(trifluoromethyl)benzyl)-1,4-dihydroquinolone-3-carboxamide] had a melting point of 199 to 201 °C. The compound further returned an MIC90 in series [1] of 2 µM (≈ 1.1 µg/mL). Also, the IC50 in series [2] (setting [4]) worked out at 1.2 µM.
In the case of `COCCNC(=O)c1cn(Cc2ccccc2)c2ccc(/C(C)=N/NC(N)=S)cc2c1=O` [Compound 17, (E)-1-benzyl-6-(1-(2-carbamothioylhydrazono)ethyl)-N-(2-methoxyethyl)-4-oxo-1,4-dihydroquinolone-3-carboxamide], the melting point lay within 199 to 200 °C. Moreover, in series [1], the MIC90 stood at 44.2 µM (≈ 20 µg/mL) and the MIC is 44.2 µM (≈ 20 µg/mL). Besides, the IC50 in series [2] (setting [4]) was 24.6 µM.
